Test results: PMC12508159 (NPJ Biofilms and Microbiomes, 2025)

Key:
[1] = target: T1, serine-rich adhesin for platelets (SraP), L-lectin module (SLL) (Staphylococcus aureus, UniProt Q8NUJ3); experiment: SPR; format: binding
[2] = target: T1, serine-rich adhesin for platelets (SraP), L-lectin module (SLL); experiment: SPR; format: binding; remark: listed apart in the source

T1 sequence (Q8NUJ3 245-480): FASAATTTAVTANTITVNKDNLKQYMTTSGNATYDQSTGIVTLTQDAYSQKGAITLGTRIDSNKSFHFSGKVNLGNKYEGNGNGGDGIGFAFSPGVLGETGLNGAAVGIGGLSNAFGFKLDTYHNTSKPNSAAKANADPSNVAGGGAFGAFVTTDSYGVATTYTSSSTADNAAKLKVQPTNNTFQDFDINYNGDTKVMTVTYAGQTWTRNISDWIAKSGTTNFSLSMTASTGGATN

| SMILES | SPR (Biacore T200), dose-dependent [1] | Kd [2] [nM] |
| --- | --- | --- |
| C[C@@H]1O[C@@H](O[C@H]2[C@H](Oc3cc(O)c4c(c3)O[C@H](c3ccc(O)c(O)c3)CC4=O)O[C@H](CO)[C@@H](O)[C@@H]2O)[C@H](O)[C@H](O)[C@H]1O [neoeriocitrin] | EGCG, neoeriocitrin, and isoviolanthin, were verified to possess strong binding signals in a dose-dependent manner |  |
| COc1cc(-c2oc3cc(O)cc(O)c3c(=O)c2O[C@@H]2O[C@H](CO[C@@H]3O[C@@H](C)[C@H](O)[C@@H](O)[C@H]3O)[C@@H](O)[C@H](O)[C@H]2O)ccc1O [isorhamnetin-3-O-β-rutinoside] | isorhamnetin-3-O-β-rutinoside, EGCG, neoeriocitrin, and isoviolanthin, were verified to possess strong binding signals in a dose-dependent manner |  |
| O=C1O[C@H]2[C@@H]3OC(=O)c4cc(O)c(O)c(O)c4-c4c(O)c(O)c5oc(=O)c6c(c(O)c(O)c7oc(=O)c4c5c76)-c4c(cc(O)c(O)c4O)C(=O)OC[C@H]3OC(O)[C@@H]2OC(=O)c2cc(O)c(O)c(O)c2-c2c1cc(O)c(O)c2O (mixture of isomers) [PA, punicalagin] |  | 566 |
